Measurements taken from patent publication US20240174690A1, “ANNULATED 2-AMINO-3-CYANO THIOPHENES AND DERIVATIVES FOR THE TREATMENT OF CANCER” (BOEHRINGER INGELHEIM INTERNATIONAL GMBH, priority 2021, published 2024).
In brackets after ≈: the same amount, converted by molar mass. Where two headings read alike, the source gives them in different places.

How the values were obtained:
[1] = Plasma protein binding assay (PPB), equilibrium dialysis, 10% FCS in PBS; assay type: in vitro ADME; details: bovine, read-out: PPB 10% FCS (% fu)
Experimental: Binding of test compounds to plasma was determined using equilibrium dialysis (ED) and quantitative mass spectrometry interfaced with liquid chromatography (LC-MS). In brief, ED was performed with dialysis devices consisting of two chambers separated by a semipermeable membrane with a molecular weight cut-off of 5-10 kg/mol. One chamber was filled with 10% FCS in PBS containing 1-10 μmol/L test compound and the other chamber was filled with phosphate-buffer saline (PBS) with or without dextran. The dialysis chamber was incubated for 3-5 hours at 37° C. After incubation, protein was precipitated from aliquots of each chamber and the concentration of test compound in the supernatant of the plasma-containing compartment (Cserum) and of the buffer-containing compartment (Cbuffer) was determined by LC-MS. The fraction of unbound test compound (not bound to plasma) (fu) was calculated according to the following equation: […]

KRAS (G12C)::SOS1 = KRAS (G12C)::SOS1 (Homo sapiens (Human), UniProt P01116, C118S/C51S/C80L/G12C); experiment: KRAS::SOS1 AlphaScreen binding assay, KRAS G12C
Chain of KRAS (G12C)::SOS1 (P01116 other isoform, or with tags, fused parts or gaps G12C/C51S/C80L/C118S): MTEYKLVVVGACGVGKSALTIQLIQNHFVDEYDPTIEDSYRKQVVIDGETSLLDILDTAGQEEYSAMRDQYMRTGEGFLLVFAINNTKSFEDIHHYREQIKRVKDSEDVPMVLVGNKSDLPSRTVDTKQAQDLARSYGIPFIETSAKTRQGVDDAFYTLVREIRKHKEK
From the text: This assay can be used to examine the potency with which compounds according to the invention binding to (mutated) KRAS inhibit the protein-protein interaction between SOS1 and (mutated) KRAS e.g., KRAS WT, KRAS G12C, KRAS G12D, KRAS G12V, KRAS G13D. […] Low IC50 values in this assay setting are indicative of strong inhibition of protein-protein interaction between SOS1 and KRAS:
These assays measure the inhibitory effect of compounds on KRAS mutant protein-protein interactions using the Alpha Screen technology by Perkin Elmer.
The following (mutant) enzyme forms of KRAS and interacting proteins are used in these assays at the given concentrations: • KRAS (G12D) 1-169, N-terminal 6His-tag, C-terminal avi-tag (Xtal BioStructures, Inc.); final assay concentration 10 nM and SOS1 564-1049, N-terminal 229 GST-tag, TEV cleavage site (Viva Biotech Ltd); final assay concentration 5 nM; • KRAS (G12C) 1-169, N-terminal 6His-tag for purification, cleaved off, C-terminal avi-tag, biotinylated, mutations: C51S, C80L, C118S (in house); final assay concentration 7.5 nM and SOS1 564-1049, N-terminal 229 GST-tag, TEV cleavage site (Viva Biotech Ltd); final assay concentration 5 nM; • KRAS (G12V) 1-169, N-terminal 6His-tag for purification, cleaved off, C-terminal avi-tag, biotinylated, TEV cleavage site, mutation: C118S, GDP loaded (in house); final assay concentration 10 nM and SOS1 564-1049, N-terminal 229 GST-tag, TEV cleavage site (Viva Biotech Ltd); final assay concentration 10 nM; • KRAS (G13D) 1-169, N-terminal 6His-tag for purification, cleaved off, C-terminal avi-tag, biotinylated, TEV cleavage site, mutation: C118S, GDP loaded (in house); final assay concentration 10 nM and SOS1 564-1049, N-terminal 229 GST-tag, TEV cleavage site (Viva Biotech Ltd); final assay concentration 10 nM; • KRAS (WT) 1-169, N-terminal 6His-tag for purification, cleaved off, C-terminal avi-tag, biotinylated, TEV cleavage site, mutation: C118S, GDP loaded (in house); final assay concentration 10 nM and SOS1 564-1049, N-terminal 229 GST-tag, TEV cleavage site (Viva Biotech Ltd); final assay concentration 10 nM.
Test compounds dissolved in DMSO are dispensed onto assay plates (Proxiplate 384 PLUS, white, PerkinElmer; 6008289) using an Access Labcyte Workstation with the Labcyte Echo 55×. For the chosen highest assay concentration of 100 μM, 150 nL of compound solution are transferred from a 10 mM DMSO compound stock solution. A series of eleven fivefold dilutions per compound are transferred to the assay plate, compound dilutions are tested in duplicates. DMSO are added as backfill to a total volume of 150 nL.
The assays run on a fully automated robotic system in a darkened room below 100 Lux. To 150 nl of compound dilution 10 μl of a mix including KRAS mutant protein, SOS1 (final assay concentrations see above) and GDP nucleotide (Sigma G7127; final assay concentration 10 μM) in assay buffer (1×PBS, 0.1% BSA, 0.05% Tween 20) are added into columns 1-24.
After 30 minutes incubation time 5 μl of Alpha Screen bead mix in assay buffer are added into columns 1-23. Bead mix consists of AlphaLISA Glutathione Acceptor Beads (PerkinElmer, Cat No AL109) and AlphaScreen Streptavidin Donor Beads (PerkinElmer Cat No 6760002) in assay buffer at a final assay concentration of 10 μg/ml each.
Plates are kept at room temperature in a darkened incubator. After an additional 60 minutes incubation time the signal is measured in a PerkinElmer Envision HTS Multilabel Reader using the AlphaScreen specs from PerkinElmer.
Each plate contains up to 16 wells of a negative control depending on the dilution procedure (platewise or serial) (DMSO instead of test compound; with KRAS mutant::SOS1 GDP mix and bead mix; column 23) and 16 wells of a positive control (DMSO instead of test compound; with KRAS mutant::SOS1 GDP mix w/o bead mix; column 24).
As internal control known inhibitors of KRAS mutant::SOS1 interaction can be measured on each compound plate. […]

[2] = Solubility measurement (DMSO solution method), McIlvaine buffer pH 4.5 or 6.8; assay type: physicochemical; details: aqueous buffer, kinetic from dmso stock, DMSO stock diluted to 250 μM, 24 h shaking at ambient temperature
Experimental: The DMSO solution is diluted with an aqueous medium (Mcllvaine buffer with pH=4.5 or 6.8) to a final concentration of 250 μM. After 24 h of shaking at ambient temperature a potentially formed precipitate is removed by filtration. The concentration of the test compound in the filtrate is determined by LC-UV methods by calibrating the signal to the signal of a reference solution with complete dissolution of the test compound in acetonitrile/water (1:1) with known concentration.

[3] = McIlvaine buffer pH 4.5, read-out: solubility pH 4.5
[4] = McIlvaine buffer pH 6.8, read-out: solubility pH 6.8

SMILES	fraction unbound [1]	IC50 (KRAS (G12C)::SOS1)	solubility at 24 h [2, 3]	solubility at 24 h [2, 4]
C[C@H](Oc1cc(-n2cc(Cn3cncn3)nn2)nc(-c2noc3c2CCC[C@@]32CCCc3sc(N)c(C#N)c32)n1)[C@@H]1CCCN1C [II-124]	0.4	2 nM	> 148 µg/mL	108 µg/mL (≈ 169 µM)
C[C@H](Oc1cc(-n2cncc3ccnc2-3)nc(-c2noc3c2CCC[C@@]32CCCc3sc(N)c(C#N)c32)n1)[C@@H]1CCCN1C [II-105]	0.07	2 nM	3 µg/mL (≈ 4.94 µM)	< 1 µg/mL
C[C@H](Oc1cc(N2CCN(C)C2=O)nc(-c2noc3c2CCC[C@@]32CCCc3sc(N)c(C#N)c32)n1)[C@@H]1CCCN1C [II-75]	0.16	2 nM	> 122 µg/mL	91 µg/mL (≈ 155 µM)
Cc1cn(C)nc1-c1cc(O[C@@H](C)[C@@H]2CCCN2C)nc(-c2noc3c2CCC[C@@]32CCCc3sc(N)c(C#N)c32)n1 [II-68]	0.09	2 nM	79 µg/mL (≈ 135 µM)	5 µg/mL (≈ 8.55 µM)
C[C@H](Oc1cc(N2CCNC[C@@]23CCOC3)nc(-c2noc3c2CCC[C@@]32CCCc3sc(N)c(C#N)c32)n1)[C@@H]1CCCN1C [II-51]	0.39	4 nM	> 138 µg/mL	> 133 µg/mL
CO[C@@H]1C[C@@H]([C@H](C)Oc2cc(-n3ccnc3)nc(-c3noc4c3CCC[C@@]43CCCc4sc(N)c(C#N)c43)n2)N(C)C1 [II-58]	0.31	2 nM	> 124 µg/mL	2 µg/mL (≈ 3.41 µM)
C[C@H](Oc1cc(-c2ccn(C[C@@H](C)O)n2)nc(-c2noc3c2CCC[C@@]32CCCc3sc(N)c(C#N)c32)n1)[C@@H]1CCCN1C [II-117]	0.19	1 nM	> 183 µg/mL	> 147 µg/mL
C[C@H](Oc1cc(-n2ccc(-c3ccccn3)n2)nc(-c2noc3c2CCC[C@@]32CCCc3sc(N)c(C#N)c32)n1)[C@@H]1CCCN1C [II-119]	0.04	2 nM	< 1 µg/mL	< 1 µg/mL
C[C@H](Oc1cc(N2CCNC3(CC3)C2)nc(-c2onc3c2CCC[C@@]32CCCc3sc(N)c(C#N)c32)n1)[C@@H]1CCCN1C [I-5]	0.51	2 nM	> 138 µg/mL	> 123 µg/mL
C[C@H](Oc1cc(-c2ccn(-c3ccccc3)n2)nc(-c2noc3c2CCC[C@@]32CCCc3sc(N)c(C#N)c32)n1)[C@@H]1CCCN1C [II-89]	–	3 nM	2 µg/mL (≈ 3.16 µM)	< 1 µg/mL
C[C@H](Oc1cc(-n2cc3c(n2)CCNC3)nc(-c2noc3c2CCC[C@@]32CCCc3sc(N)c(C#N)c32)n1)[C@@H]1CCCN1C [II-53]	0.29	–	–	–
C[C@H](Oc1cc(-c2ccn(-c3ccsc3)n2)nc(-c2noc3c2CCC[C@@]32CCCc3sc(N)c(C#N)c32)n1)[C@@H]1CCCN1C [II-84]	–	3 nM	< 1 µg/mL	< 1 µg/mL
C[C@H](Oc1cc(N2CCc3cccnc32)nc(-c2noc3c2CCC[C@@]32CCCc3sc(N)c(C#N)c32)n1)[C@@H]1CCCN1C [II-90]	0.01	7 nM	–	–
C[C@H](Oc1cc(-n2cccc3cnnc2-3)nc(-c2noc3c2CCC[C@@]32CCCc3sc(N)c(C#N)c32)n1)[C@@H]1CCCN1C [II-92]	0.09	5 nM	–	–
C[C@H](Oc1cc(-n2ccncc2=O)nc(-c2noc3c2CCC[C@@]32CCCc3sc(N)c(C#N)c32)n1)[C@@H]1CCCN1C [II-116]	0.35	2 nM	–	–

The next lines start with the values.

fraction unbound [1]	IC50 (KRAS (G12C)::SOS1)	solubility at 24 h [2, 3]	solubility at 24 h [2, 4]	SMILES
0.36	9 nM	> 141 µg/mL	114 µg/mL (≈ 189 µM)	C[C@H](Oc1cc(N2CC[C@H](N(C)C)C2)nc(-c2noc3c2CCC[C@@]32CCCc3sc(N)c(C#N)c32)n1)[C@@H]1CCCN1C [II-49]
0.5	2 nM	109 µg/mL (≈ 185 µM)	101 µg/mL (≈ 171 µM)	C[C@H](Oc1cc(N2CCC[C@H](O)C2)nc(-c2noc3c2CCC[C@@]32CCCc3sc(N)c(C#N)c32)n1)[C@@H]1CCCN1C [II-57]
0.01	2 nM	83 µg/mL (≈ 139 µM)	< 1 µg/mL	C[C@H](Oc1cc(-c2ccn(C3CC3)n2)nc(-c2noc3c2CCC[C@@]32CCCc3sc(N)c(C#N)c32)n1)[C@@H]1CCCN1C [II-98]
0.53	2 nM	> 134 µg/mL	> 121 µg/mL	C[C@H](Oc1cc(C2COCCO2)nc(-c2noc3c2CCC[C@@]32CCCc3sc(N)c(C#N)c32)n1)[C@@H]1CCCN1C (stereo partly shown) [II-95]
0.45	2 nM	108 µg/mL (≈ 194 µM)	76 µg/mL (≈ 137 µM)	C[C@H](Oc1cc(-n2ccnc2)nc(-c2noc3c2CCC[C@@]32CCCc3sc(N)c(C#N)c32)n1)[C@@H]1CCCN1C [II-69]
0.43	8 nM	–	–	C[C@H](Oc1cc(-c2cn(C3CCOCC3)nn2)nc(-c2noc3c2CCC[C@@]32CCCc3sc(N)c(C#N)c32)n1)[C@@H]1CCCN1C [II-115]
0.23	2 nM	40 µg/mL (≈ 69.6 µM)	8 µg/mL (≈ 13.9 µM)	C[C@H](Oc1cc(N2CCNC2=O)nc(-c2noc3c2CCC[C@@]32CCCc3sc(N)c(C#N)c32)n1)[C@@H]1CCCN1C [II-64]
0.2	2 nM	–	–	C[C@H](Oc1cc([C@H]2CCOC2)nc(-c2noc3c2CCC[C@@]32CCCc3sc(N)c(C#N)c32)n1)[C@@H]1CCCN1C [II-88]
0.11	3 nM	115 µg/mL (≈ 197 µM)	84 µg/mL (≈ 144 µM)	C[C@H](Oc1cc(N2CCC(C#N)C2)nc(-c2noc3c2CCC[C@@]32CCCc3sc(N)c(C#N)c32)n1)[C@@H]1CCCN1C (stereo partly shown) [II-99]
0.23	7 nM	–	–	C[C@H](Oc1cc(-c2cncs2)nc(-c2noc3c2CCC[C@@]32CCCc3sc(N)c(C#N)c32)n1)[C@@H]1CCCN1C [II-80]
0.26	3 nM	–	–	C[C@H](Oc1cc(-c2cn[nH]c2)nc(-c2noc3c2CCC[C@@]32CCCc3sc(N)c(C#N)c32)n1)[C@@H]1CCCN1C [II-87]
